According to patent publication US11046716B2, “Beta-lactamase inhibitors” (priority 2015, dated 2021):

Assays:
KPC-2 = molecular target: T1, KPC-2 (Klebsiella pneumoniae, UniProt Q9F663); assay: β-lactamase enzyme inhibition assay, KPC-2 (imipenem substrate); assay type: biochemical; conditions: Class A; imipenem substrate, 300 nm; read-out: KPC-2
T1 construct: made in house; host or cells: E. coli BL21(DE3)
How it was run: (§1)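 IC50 is the inhibitor level cutting initial substrate hydrolysis rate by 50% relative to no-inhibitor controls, after 15 min enzyme–inhibitor preincubation at 37 °C. KPC-2 read with imipenem at 300 nm, SHV-5 with cefotaxime at 260 nm; enzymes were untagged, E. coli-expressed, chromatographically purified.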

AmpC = molecular target: T2, AmpC (Enterobacter cloacae, UniProt P05364); assay: β-lactamase enzyme inhibition assay, p99 AmpC (nitrocefin substrate); assay type: biochemical
T2 construct: made in house; host or cells: E. coli BL21(DE3)
T2 sequence (P05364 21-381): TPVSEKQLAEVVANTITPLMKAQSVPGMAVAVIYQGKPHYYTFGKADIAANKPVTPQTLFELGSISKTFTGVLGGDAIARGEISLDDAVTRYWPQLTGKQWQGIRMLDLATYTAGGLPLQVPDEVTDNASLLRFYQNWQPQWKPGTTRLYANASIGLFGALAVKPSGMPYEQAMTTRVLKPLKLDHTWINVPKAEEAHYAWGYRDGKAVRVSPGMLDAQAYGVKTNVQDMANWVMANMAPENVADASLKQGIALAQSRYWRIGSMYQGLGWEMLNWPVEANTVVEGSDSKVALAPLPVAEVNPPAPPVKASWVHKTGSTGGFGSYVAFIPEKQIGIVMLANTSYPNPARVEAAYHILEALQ
How it was run: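 IC50 is the inhibitor level cutting initial substrate hydrolysis rate by 50% relative to no-inhibitor controls, after 15 min enzyme–inhibitor preincubation at 37 °C. enzymes were untagged, E. coli-expressed, chromatographically purified.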

[1] = tested on: K. pneumoniae expressing the Class A carbapenemase KPC-2; assay: Broth microdilution MIC assay with meropenem, K. pneumoniae KPC-2; assay type: cell-based; conditions: Fixed Mero (meropenem) 4 μg/mL; K. p. 156319 KPC-3
How it was run: (§2)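 CLSI broth microdilution in cation-adjusted Mueller Hinton broth measured growth of β-lactamase-expressing strains, grown 3-5 h beforehand. The β-lactam partner was held at 4 μg/ml final while test compound was titrated 2-fold from 16 to 0.125 μg/mL final. After 16-20 h at 37° C, the compound MIC was determined by eye.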

SHV-5 = molecular target: T3, SHV-5 (Klebsiella pneumoniae, UniProt P0A3M1); assay: β-lactamase enzyme inhibition assay, SHV-5 (cefotaxime substrate); assay type: biochemical
T3 construct: made in house; host or cells: E. coli BL21(DE3)
T3 sequence (P0A3M1 22-286): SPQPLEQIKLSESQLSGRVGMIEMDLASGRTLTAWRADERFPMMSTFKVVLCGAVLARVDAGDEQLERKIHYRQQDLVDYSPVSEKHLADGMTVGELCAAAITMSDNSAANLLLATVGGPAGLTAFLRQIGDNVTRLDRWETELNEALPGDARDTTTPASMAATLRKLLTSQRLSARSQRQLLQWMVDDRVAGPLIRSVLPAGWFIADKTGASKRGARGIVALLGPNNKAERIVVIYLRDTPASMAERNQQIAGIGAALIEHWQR
How it was run: as §1

[2] = tested on: E. cloacae expressing the Class C P99; assay: Broth microdilution MIC assay with ceftazidime, E. cloacae P99; assay type: cell-based; conditions: Fixed CAZ (ceftazidime) 4 μg/mL; E. cl. 144200 p99 AmpC
How it was run: as §2

VIM-2 = molecular target: T4, VIM-2 (Escherichia coli, UniProt Q5U7L7); assay: β-lactamase enzyme inhibition assay, VIM-2 (nitrocefin substrate); assay type: biochemical; conditions: Class B; nitrocefin substrate, 486 nm; read-out: VIM-2
T4 construct: made in house; host or cells: E. coli BL21(DE3)
How it was run: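 Nitrocefin hydrolysis (100 μM final, A486 read for 10 min) by purified VIM-2 after a 15-min, 37° C enzyme–inhibitor preincubation. IC50 is the concentration halving initial hydrolysis rate, derived from percent inhibition against no-inhibitor wells.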

[3] = tested on: K. pneumoniae producing the Class D carbapenemase OXA-48; assay: Broth microdilution MIC assay with meropenem, K. pneumoniae OXA-48; assay type: cell-based; conditions: Fixed Mero (meropenem) 4 μg/mL; K. p. 11978 OXA-48
How it was run: as §2

[4] = tested on: P. aeruginosa expressing the Class B carbapenemase VIM-2; assay: Broth microdilution MIC assay with meropenem, P. aeruginosa VIM-2; assay type: cell-based; conditions: Fixed Mero (meropenem) 4 μg/mL; P. aerug. 2775 VIM-2
How it was run: as §2

[5] = tested on: K. pneumoniae expressing the class A carbapenemase KPC-2 and the class B carbapenemase VIM-4; assay: Broth microdilution MIC assay with meropenem, K. pneumoniae KPC-2 and VIM-4; assay type: cell-based; conditions: Fixed Mero (meropenem) 4 μg/mL; K. p. A-1797 KPC-2 VIM-4
How it was run: as §2

[6] = tested on: E. coli expressing the Class A Extended Spectrum Beta-Lactamase (ESBL) CTX-M-15; assay: Broth microdilution MIC assay with ceftazidime, E. coli CTX-M-15; assay type: cell-based; conditions: Fixed CAZ (ceftazidime) 4 μg/mL; E. coli ESBL4 CTX-M-15
How it was run: as §2

OXA-48 = OXA-48 (UniProt Q6XEC0); assay: β-lactamase enzyme inhibition assay, Class D oxacillinase; assay type: biochemical; conditions: read-out: OXA-48

T1 sequence (Q9F663 25-293, looked up): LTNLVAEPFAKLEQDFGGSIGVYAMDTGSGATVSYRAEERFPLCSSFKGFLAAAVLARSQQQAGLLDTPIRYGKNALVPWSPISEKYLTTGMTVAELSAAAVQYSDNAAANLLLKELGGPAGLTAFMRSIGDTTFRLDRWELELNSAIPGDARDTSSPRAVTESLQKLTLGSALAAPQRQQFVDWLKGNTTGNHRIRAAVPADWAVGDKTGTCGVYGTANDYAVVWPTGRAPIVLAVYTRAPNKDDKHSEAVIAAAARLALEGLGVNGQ

Compound | IC50 (KPC-2) | IC50 (AmpC) | MIC (μg/mL) of Exemplary Compounds in presence of fixed β-lactams: K. p. 156319 KPC-3 [1] | IC50 (SHV-5) | MIC (μg/mL) of Exemplary Compounds in presence of fixed β-lactams: E. cl. 144200 p99 AmpC [2] | IC50 (VIM-2) | MIC (μg/mL) of Exemplary Compounds in presence of fixed β-lactams: K. p. 11978 OXA-48 [3] | MIC (μg/mL) of Exemplary Compounds in presence of fixed β-lactams: P. aerug. 2775 VIM-2 [4] | MIC (μg/mL) of Exemplary Compounds in presence of fixed β-lactams: K. p. A-1797 KPC-2 VIM-4 [5] | MIC (μg/mL) of Exemplary Compounds in presence of fixed β-lactams: E. coli ESBL4 CTX-M-15 [6] | IC50 (OXA-48)
NCc1nnc(CC(=O)N[C@H]2Cc3cccc(C(=O)O)c3OB2O)[nH]1 [Example 23, (R)-3-(2-(5-(aminomethyl)-4H-1,2,4-triazol-3-yl)acetamido)-2-hydroxy-3,4-dihydro-2H-benzo[e][1,2]oxaborinine-8-carboxylic acid] | < 100 nM | < 100 nM | C (C represents an MIC of <1 μg/mL) | < 100 nM | C (C represents an MIC of <1 μg/mL) | 100 to 1000 nM | B (B represents an MIC between 1 and 16 μg/mL inclusive) | C (C represents an MIC of <1 μg/mL) | B (B represents an MIC between 1 and 16 μg/mL inclusive) | C (C represents an MIC of <1 μg/mL) | 100 to 1000 nM
N[C@@H]1CCN(C(=O)c2cn(CC(=O)N[C@H]3Cc4cccc(C(=O)O)c4OB3O)nn2)C1 [Example 85, (R)-3-(2-(4-((R)-3-aminopyrrolidine-1-carbonyl)-1H-1,2,3-triazol-1-yl)acetamido)-2-hydroxy-3,4-dihydro-2H-benzo[e][1,2]oxaborinine-8-carboxylic acid] | 100 to 1000 nM | < 100 nM | C (C represents an MIC of <1 μg/mL) | 100 to 1000 nM | C (C represents an MIC of <1 μg/mL) | 100 to 1000 nM | B (B represents an MIC between 1 and 16 μg/mL inclusive) | C (C represents an MIC of <1 μg/mL) | B (B represents an MIC between 1 and 16 μg/mL inclusive) | C (C represents an MIC of <1 μg/mL) | 100 to 1000 nM
NCc1ccc(-c2cn(CC(=O)N[C@H]3Cc4cccc(C(=O)O)c4OB3O)nn2)cn1 [Example 75, (R)-3-(2-(4-(6-(aminomethyl)pyridin-3-yl)-1H-1,2,3-triazol-1-yl)acetamido)-2-hydroxy-3,4-dihydro-2H-benzo[e][1,2]oxaborinine-8-carboxylic acid] | 100 to 1000 nM | < 100 nM | C (C represents an MIC of <1 μg/mL) | < 100 nM | C (C represents an MIC of <1 μg/mL) | 100 to 1000 nM | B (B represents an MIC between 1 and 16 μg/mL inclusive) | B (B represents an MIC between 1 and 16 μg/mL inclusive) | B (B represents an MIC between 1 and 16 μg/mL inclusive) | C (C represents an MIC of <1 μg/mL) | 100 to 1000 nM
O=C(Cn1cc(C(=O)N[C@@H]2CCNC2)nn1)N[C@H]1Cc2cccc(C(=O)O)c2OB1O [Example 84, (R)-2-hydroxy-3-(2-(4-(((R)-pyrrolidin-3-yl)carbamoyl)-1H-1,2,3-triazol-1-yl)acetamido)-3,4-dihydro-2H-benzo[e][1,2]oxaborinine-8-carboxylic acid] | < 100 nM | < 100 nM | B (B represents an MIC between 1 and 16 μg/mL inclusive) | 100 to 1000 nM | C (C represents an MIC of <1 μg/mL) | < 100 nM | B (B represents an MIC between 1 and 16 μg/mL inclusive) | C (C represents an MIC of <1 μg/mL) | C (C represents an MIC of <1 μg/mL) | C (C represents an MIC of <1 μg/mL) | 100 to 1000 nM
O=C(Cn1cc(C(=O)N[C@H]2CCNC2)nn1)N[C@H]1Cc2cccc(C(=O)O)c2OB1O [Example 81, (R)-2-hydroxy-3-(2-(4-(((S)-pyrrolidin-3-yl)carbamoyl)-1H-1,2,3-triazol-1-yl)acetamido)-3,4-dihydro-2H-benzo[e][1,2]oxaborinine-8-carboxylic acid] | < 100 nM | < 100 nM | C (C represents an MIC of <1 μg/mL) | < 100 nM | C (C represents an MIC of <1 μg/mL) | < 100 nM | C (C represents an MIC of <1 μg/mL) | C (C represents an MIC of <1 μg/mL) | C (C represents an MIC of <1 μg/mL) | C (C represents an MIC of <1 μg/mL) | 100 to 1000 nM
NCc1cnn(CC(=O)N[C@H]2Cc3cccc(C(=O)O)c3OB2O)c1 [Example 68, (R)-3-(2-(4-(aminomethyl)-1H-pyrazol-1-yl)acetamido)-2-hydroxy-3,4-dihydro-2H-benzo[e][1,2]oxaborinine-8-carboxylic acid] | < 100 nM | < 100 nM | C (C represents an MIC of <1 μg/mL) | 100 to 1000 nM | C (C represents an MIC of <1 μg/mL) | 100 to 1000 nM | B (B represents an MIC between 1 and 16 μg/mL inclusive) | C (C represents an MIC of <1 μg/mL) | B (B represents an MIC between 1 and 16 μg/mL inclusive) | C (C represents an MIC of <1 μg/mL) | 100 to 1000 nM
N=CNCCn1nnnc1CC(=O)N[C@H]1Cc2cccc(C(=O)O)c2OB1O [Example 104, (R)-3-(2-(1-(2-formimidamidoethyl)-1H-tetrazol-5-yl)acetamido)-2-hydroxy-3,4-dihydro-2H-benzo[e][1,2]oxaborinine-8-carboxylic acid] | < 100 nM | < 100 nM | C (C represents an MIC of <1 μg/mL) | < 100 nM | C (C represents an MIC of <1 μg/mL) | 100 to 1000 nM | C (C represents an MIC of <1 μg/mL) | C (C represents an MIC of <1 μg/mL) | C (C represents an MIC of <1 μg/mL) | C (C represents an MIC of <1 μg/mL) | 100 to 1000 nM
CSCC[C@@H](C(=O)N[C@H]1Cc2cccc(C(=O)O)c2OB1O)n1cc(CN)nn1 [Example 115, (R)-3-((S)-2-(4-(aminomethyl)-1H-1,2,3-triazol-1-yl)-4-(methylthio)butanamido)-2-hydroxy-3,4-dihydro-2H-benzo[e][1,2]oxaborinine-8-carboxylic acid] | 100 to 1000 nM | < 100 nM | B (B represents an MIC between 1 and 16 μg/mL inclusive) | 100 to 1000 nM | C (C represents an MIC of <1 μg/mL) | 100 to 1000 nM | B (B represents an MIC between 1 and 16 μg/mL inclusive) | B (B represents an MIC between 1 and 16 μg/mL inclusive) | B (B represents an MIC between 1 and 16 μg/mL inclusive) | C (C represents an MIC of <1 μg/mL) | 1000 to 10000 nM
